A short description of assay [1]: Sensory evaluation of the compounds in water. The following applies: 2 g/L in water; 12 panelists. Here is the method:
The compounds ornithine, ornithyl-β-alanine, 1-deoxy-D-fructosyl-N-ornithine, 1-deoxy-D-fructosyl-N-ornithyl-β-alanine and 1-deoxy-2-pentulofuranos-1-yl-Ornithine (Rib-Orn) were each dissolved and diluted in water in a final concentration of 2 g/L. The solutions were then evaluated by 12 panelists, which were previously screened and selected for their sensory abilities.

Assay [2] can be described thus: Comparison of soup bases containing Fru-orn versus the mixture of glucose and ornithine. The following applies: 2 g/L (6.82 mmol/L), 6 panelists. How it is done:
A first soup was prepared by adding 2 g/L (6.82 mmol/L) 1-deoxy-D-fructosyl-N-ornithine in the soup base described above. A second soup was prepared by adding same molar concentration of glucose and ornithine. The solutions were then evaluated by 6 panelists following the same procedure than described above.

The nature of assay [3]: Sensory evaluation of the compounds in a chicken soup base. The following applies: for flavor impact in chicken soup base versus reference soup: ANOVA/LSD, alpha 5%; for Sensory inpact on chicken soup: chicken soup base, compounds added at 2 and 0.25 g/L, 12 panelists. How it is done: Chicken soups were prepared by dissolving 6 g chicken base powder (detailed recipe shown in Table 1), 1 g monosodium glutamate and 1 g of sodium chloride in 500 mL hot water. 1-Deoxy-D-fructosyl-N-ornithyl-β-alanine, N-ornithyl-β-alanine, 1-deoxy-D-fructosyl-N-ornithine or alternatively 1-deoxy-2-pentulofuranos-1-yl-Ornithine (Rib-Orn) were then added separately at 2 and 0.25 g/L final concentrations.
The sensory evaluation was carried out by 12 panelists, previously screened for their sensory abilities. The panelists assessed a maximum of 6 samples per session. They had Vittel water and crackers as mouth cleansers. In all the cases, the panelists were instructed to evaluate the samples for the following attributes: overall flavor persistency, meaty, grilled/popcorn-like, bread-like, sweet, bitter, and salty. The samples were coded with random 3-digit numbers according to a balanced presentation design, heated at approximately 65° C. and then presented in 40 ml brown plastic containers and under red light to minimize appearance bias (the serving was approximately 25 ml per sample).
The following statistical tests were used to analyze the sensory raw data: First, the Analysis of Variance (ANOVA) with two factors, products (fixed factor) and subject (random factor) was computed in order to determine if there was any difference among samples. The limit of significance (alpha risk) was set at 5%. […] The limit of significance (alpha risk) was set at 5%.

Assay [4] is described as follows: Tomato soups with added compound (seasoning compositions). The following applies: 2 g/L in tomato soup. How it is done:
Tomato soups can be prepared by dissolving 6 g tomato base powder as can be obtained in the commerce in 500 mL hot water. 1-deoxy-D-fructosyl-N-ornithine or alternatively 1-Deoxy-D-fructosyl-N-ornithyl-β-alanine can be added at a concentration of 2 g/L to the soups in order to improve their taste and flavor profile.

For assay [5] the following is noted: cited from earlier work; for orosensation effect of subthreshold concentrations: together with L-glutamic acid and sodium and/or potassium ions, Dunkel and Hofmann 2009.

Entries after “also recorded” stand apart in the source; their conditions may differ.

For the compound `N[C@@H](CCCNCC1(O)OCC(O)C(O)C1O)C(=O)O` (stereo partly drawn) [Fru-Orn, 1-deoxy-D-fructosyl-N-ornithine], in assay [1], the “Flavour property in water (2 g/L)” value was “salty”. Besides, the “saltiness versus soup with same molar concentration of glucose and ornithine” value in assay [2] (tasted with nose-clip) was “more salty”. The “chicken flavor versus soup with same molar concentration of glucose and ornithine” value in assay [2] (tasted without nose-clip) is “greater chicken flavor”. Further, the “flavor impact in chicken soup base versus reference soup” value in assay [3] (0.25 g/L) is on record as “bread flavors were significantly perceived”. Further, the “flavor impact in chicken soup base versus reference soup” value in assay [3] (2 g/L) was “grilled meat flavor and saltiness were significantly enhanced”. The “Sensory inpact on chicken soup” value in assay [3] is reported as “grilled/popcorn,; also recorded: bread, saltiness”. Moreover, in assay [4], the “grilled savory flavor of tomato soup versus reference soup” value was “more pronounced grilled savory flavor” and the “perceived saltiness of tomato soup versus reference soup” value is recorded as “slightly more salty”.
Turning to `N[C@@H](CCCNCC1(O)OC[C@@H](O)[C@@H](O)[C@@H]1O)C(=O)NCCC(=O)O` (stereo partly drawn) [Fru-Orn-βala, 1-deoxy-D-fructosyl-N-ornithyl-β-alanine], the “Flavour property in water (2 g/L)” value in assay [1] is “sweet, bread”. In assay [3] (2 g/L each), the “grilled and bread attributes of chicken soup versus soup with orn-ala” value is “enhanced significantly; also recorded: increases the desired grilled meat and bread flavor note”; the “overall flavor persistency of chicken soup versus soup with orn-ala” value is “significantly different”; the “perceived bitterness of chicken soup versus soup with orn-ala” value is given as “significantly decreasing; also recorded: reducing overall bitterness”. For the same compound, in assay [3], the “Sensory inpact on chicken soup” value is “grilled/popcorn,; also recorded: bread, saltiness”. Also, in assay [4], the “grilled savory flavor of tomato soup versus reference soup” value is recorded as “more pronounced grilled savory flavor” and the “perceived saltiness of tomato soup versus reference soup” value was “slightly more salty”.
Turning to `Cn1cncc1C[C@H](NC(=O)CCN)C(=O)O` [L-anserine], the “orosensation effect of subthreshold concentrations” value (from here on “orosensation effect”) in assay [5] was “enhance the typical thick-sour orosensation and white-meaty character”.
Consider `NCCC(=O)N[C@@H](Cc1cnc[nH]1)C(=O)O` [L-carnosine], for which the “orosensation effect” value in assay [5] was “enhance the typical thick-sour orosensation and white-meaty character”.
For `NCCC[C@H](N)C(=O)NCCS(=O)(=O)O` [L-ornithinyltaurine], the “bitter masking effects against potassium salts” value in assay [5] (J. P. Ley 2008) was “bitter masking effects”. The taste produced entry in assay [5] (Tamura et al. 1989) was “salty taste”.
For the compound `NCCC[C@H](N)C(=O)O` [Orn, L-ornithine], in assay [5] (J. P. Ley 2008), the “off-taste inhibition in combination with bitter branched chain amino acids” value is given as “off-taste inhibitor”.
Regarding `NCCC[C@H](N)C(=O)NCCC(=O)O` [Orn-ala, N-ornithyl-β-alanine, reference compound], the “Flavour property in water (2 g/L)” value in assay [1] is recorded as “astringent”. Moreover, the “bitter masking effects against potassium salts” value in assay [5] (J. P. Ley 2008) is “bitter masking effects”. Further, the “flavor impact in chicken soup base versus reference soup” value in assay [3] (2 g/L) was “no statistically significant differences”. In assay [3], the “Sensory inpact on chicken soup” value is recorded as “none”.
`N[C@@H](CCCNCC1(O)OC[C@@H](O)[C@H]1O)C(=O)O` (stereo partly shown) [Rib-Orn, 1-deoxy-2-pentulofuranos-1-yl-ornithine]: the “Flavour property in water (2 g/L)” value in assay [1] was “astringent, sour, metallic and slightly sweet; also recorded: Astringent,”. The “flavor impact in chicken soup base versus reference soup” value in assay [3] (0.25 g/L) is “both baked bread flavor and umami taste were significantly enhanced”. In addition, in assay [3], the “Sensory inpact on chicken soup” value was “Grilled/bread,; also recorded: umami”.
For `NCCC(=O)NCC(=O)O` [β-alanylglycine], the “orosensation effect” value in assay [5] was “enhance the typical thick-sour orosensation and white-meaty character”.
